Laboratory results: patent US10807968B2, “Substituted 2-(het)arylimidazolylcarboxyamides as pesticides” (Bayer CropScience Aktiengesellschaft, priority 2016, dated 2020)
Like-named read-outs stand apart in the source and are kept apart here.

Experiments:
[1] = log P determination by HPLC on reversed-phase (C18) columns, OECD Guideline 117; format: physicochemical; settings: for chromatographic logP: reversed-phase (C18) HPLC column
Description: The log P values were determined in accordance with OECD Guideline 117 (EC Directive 92/69/EEC) by HPLC (high-performance liquid chromatography) using reversed-phase (RP) columns (C18), by the following methods:
[a] The LC-MS determination in the acidic range was carried out at pH 2.7 with 0.1% aqueous formic acid and acetonitrile (contains 0.1% formic acid) as mobile phases; linear gradient from 10% acetonitrile to 95% acetonitrile.
[b] LC-MS determination in the neutral range was carried out at pH 7.8 with 0.001 molar aqueous ammonium hydrogencarbonate solution and acetonitrile as mobile phases; linear gradient from 10% acetonitrile to 95% acetonitrile.

Myzus persicae [2] = experiment: Myzus persicae - spray test (Chinese cabbage leaf discs); format: in vivo; settings: after 6 days; for pest or weed control at 500 g/ha: Myzus persicae, foliar, 144 h, read-out: efficacy in % (aphids killed)
Description: Myzus persicae—Spray Test
Solvent: 78 parts by weight of acetone • • 1.5 parts by weight of dimethylformamide
Emulsifier: alkylaryl polyglycol ether
To produce a suitable preparation of active compound, 1 part by weight of active compound is dissolved using the specified parts by weight of solvent and made up with water containing an emulsi fier concentration of 1000 ppm until the desired concentration is attained. To produce further test concentrations, the formulation is diluted with emulsifier-containing water.
Discs of Chinese cabbage leaves (Brassica pekinensis) infested by all stages of the green peach aphid (Myzus persicae) are sprayed with an active compound formulation of the desired concentration.
After 6 days, the efficacy in % is determined. 100% means that all the aphids have been killed; 0% means that no aphids have been killed.

Myzus persicae [3] = experiment: Myzus persicae - oral test; format: in vivo; settings: after 5 days; for efficacy in % (aphids killed): 20 ppm; for pest or weed control at 20 ppm: Myzus persicae, 120 h, read-out: efficacy in % (aphids killed)
Description: Solvent: 100 parts by weight of acetone
Subsequently, the plates are sealed with parafilm, which a mixed population of green peach aphids (Myzus persicae) within a second microtitre plate is able to puncture and imbibe the solution through it.
After 5 days, the efficacy in % is determined. 100% means that all the aphids have been killed; 0% means that no aphids have been killed.

[4] = HPLC, acidic range pH 2.7, 0.1% aqueous formic acid/acetonitrile
[5] = HPLC, neutral range pH 7.8, 0.001 molar aqueous ammonium hydrogencarbonate/acetonitrile
[6] = pH 2.7, HPLC, acidic range pH 2.7, 0.1% aqueous formic acid/acetonitrile, read-out: logp-acidic
[7] = pH 7.8, HPLC, neutral range pH 7.8, 0.001 molar aqueous ammonium hydrogencarbonate/acetonitrile, read-out: logp-neutral

SMILES | efficacy in % (aphids killed) (Myzus persicae [2]; 500 g/ha) | efficacy in % (aphids killed) (Myzus persicae [3]) | logp-acidic ([1]; pH 2.7) | logp-neutral ([1]; pH 7.8) | further results
CN(C(=O)c1cnc(-c2ccccc2Cl)n1C)c1cccnc1 [Example 9] | 100% | 100% |  |  | logp-acidic [1, 4]: 1.10
COc1ccc(C#N)cc1-c1ncc(C(=O)N(C)c2cccnc2)n1C [Example 62] | 100% | 100% |  |  | logp-acidic [1, 4]: 0.78; logp-neutral [1, 5]: 1.37
CN(C(=O)c1cnc(-c2cc(Cl)cc(C#N)c2)n1C)c1cccnc1 [Example 69] | 100% | 100% |  |  | logp-acidic [1, 4]: 1.52; logp-neutral [1, 5]: 1.74
Cc1cc(C)cc(-c2ncc(C(=O)N(C)c3cccnc3)n2C)c1 [Example 8] |  | 100% |  |  | logp-acidic [1, 4]: 1.16; efficacy in % (aphids killed) (Myzus persicae [2]; 100 g/ha): 90%
COC(=O)c1cc(F)ccc1-c1ncc(C(=O)N(C)c2cccnc2)n1C [Example 29] | 90% | 100% | 1.04 | 1.55 | 
COc1ccc(-c2ncc(C(=O)N(C)c3cccnc3)n2C)c(OC)c1 [Example 84] | 100% | 100% | 0.8 | 1.54 | 
CN(C(=O)c1cnc(-c2ccc(F)c3ccccc23)n1C)c1cccnc1 [Example 30] | 90% | 100% | 1.57 | 2.05 | 
CN(C(=O)c1cnc(-c2cc(F)cc(C(F)(F)F)c2)n1C)c1cccnc1 [Example 54] | 90% | 100% | 1.90 | 2.14 | 
CN(C(=O)c1cnc(-c2ccoc2)n1C)c1cccnc1 [Example 15] | 90% | 100% |  |  | logp-acidic [1, 4]: 0.29
CN(C(=O)c1cnc(-c2cccc(CC(F)(F)F)c2)n1C)c1cccnc1 [Example 56] | 90% | 100% |  | 1.96 | 
COCc1cccc(-c2ncc(C(=O)N(C)c3cccnc3)n2C)c1 [Example 19] | 90% | 90% |  |  | logp-acidic [1, 4]: 0.86; logp-neutral [1, 5]: 1.43
CSc1ncccc1-c1ncc(C(=O)N(C)c2cccnc2)n1C [Example 91] | 90% | 100% | 0.93 | 1.33 | 
CN(C(=O)c1cnc(-c2ccccc2OCC(N)=O)n1C)c1cccnc1 [Example 104] | 100% | 100% | 0.23 | 1.03 | 
CSc1cc(-c2ncc(C(=O)N(C)c3cccnc3)n2C)ccc1C [Example 23] | 100% | 100% | 1.43 | 2.03 | 
CC(C)n1cc(-c2ncc(C(=O)N(C)c3cccnc3)n2C)nn1 [Example 73] | 100% | 100% | 0.88 | 1.24 | 
COc1ncc(F)cc1-c1ncc(C(=O)N(C)c2cccnc2)n1C [Example 101] | 100% | 100% | 0.91 | 1.38 | 
CC(C)Oc1ccc(-c2ncc(C(=O)N(C)c3cccnc3)n2C)cn1 [Example 102] | 90% | 100% | 1.21 | 1.79 | 
CCOc1ccc(-c2ncc(C(=O)N(C)c3cccnc3)n2C)cn1 [Example 89] | 90% | 100% | 0.93 | 1.53 | 
CSc1cccc(-c2ncc(C(=O)N(C)c3cccnc3)n2C)c1 [Example 3] | 90% | 100% | 1.24 | 1.75 | 
CN(C(=O)c1cnc(-c2cccc(SC(F)(F)F)c2)n1C)c1cccnc1 [Example 17] | 90% | 100% | 2.00 | 2.28 | 

SMILES | efficacy in % (aphids killed) (Myzus persicae [2]; 500 g/ha) | efficacy in % (aphids killed) (Myzus persicae [3]) | logp-acidic ([1]; pH 2.7) | logp-neutral ([1]; pH 7.8) | further results
CN(C(=O)c1cnc(-c2cc(F)cc(C#N)c2)n1C)c1cccnc1 [Example 60] | 90% | 100% | 1.21 | 1.52 | 
CN(C(=O)c1cnc(-c2cccn2C)n1C)c1cccnc1 [Example 14] |  |  |  |  | chromatographic logP [1, 6]: 0.62; pest or weed control at 500 g/ha (Myzus persicae [2]; 500 g/ha): 90%; pest or weed control at 20 ppm (Myzus persicae [3]): 100%
CN(C(=O)c1cnc(-c2cccc3ccoc23)n1C)c1cccnc1 [Example 80] | 100% | 100% | 0.97 | 1.62 | 
COC(=O)c1cccc2c(-c3ncc(C(=O)N(C)c4cccnc4)n3C)cccc12 [Example 28] | 90% | 100% | 1.56 | 1.95 | 
CN(C(=O)c1cnc(-c2cccc3c2OCC3)n1C)c1cccnc1 [Example 79] | 100% | 100% | 0.7 |  | 
CN(C(=O)c1cnc(-c2cnn(-c3ccccc3)c2)n1C)c1cccnc1 [Example 26] | 90% | 100% | 1.19 | 1.70 | 
CN(C(=O)c1cnc(-c2cnn(-c3ccccc3C#N)c2)n1C)c1cccnc1 [Example 24] | 90% | 100% | 1.07 | 1.49 | 
CN(C(=O)c1cnc(-c2cnc(N3CCOCC3)c(C#N)c2)n1C)c1cccnc1 [Example 66] | 90% | 100% | 1.16 | 1.45 | 
CN(C(=O)c1cnc(-c2cc(C(F)(F)F)cc(C(F)(F)F)c2)n1C)c1cccnc1 [Example 53] | 90% | 100% | 2.43 | 2.63 | 
CCN(C(=O)c1cnc(-c2cnc(OC)c(C#N)c2)n1C)c1cccnc1 [Example 75] |  |  |  |  | chromatographic logP [1, 6]: 1.46; chromatographic logP [1, 7]: 1.65; pest or weed control at 500 g/ha (Myzus persicae [2]; 500 g/ha): 100%; pest or weed control at 20 ppm (Myzus persicae [3]): 100%
COc1ncc(-c2ncc(C(=O)N(C)c3cccnc3)n2C)cc1C(F)(F)F [Example 95] | 100% | 100% | 1.75 | 2 | 
CN(C(=O)c1cnc(-c2ccc(C#N)c(C(F)(F)F)c2)n1C)c1cccnc1 [Example 55] |  |  |  |  | chromatographic logP [1, 6]: 1.72; chromatographic logP [1, 7]: 1.92; pest or weed control at 500 g/ha (Myzus persicae [2]; 500 g/ha): 90%; pest or weed control at 20 ppm (Myzus persicae [3]): 100%
CN(C(=O)c1cnc(-c2cnn(-c3ccc(F)cc3)c2)n1C)c1cccnc1 [Example 25] | 90% | 100% | 1.21 | 1.68 | 
CCOc1ncc(-c2ncc(C(=O)N(CC)c3cccnc3)n2C)cc1C#N [Example 76] | 90% | 100% | 1.69 | 1.95 | 
COc1ccc(-c2ncc(C(=O)N(C)c3cccnc3)n2C)cn1 [Example 103] | 100% | 100% | 0.58 | 1.25 | 
CN(C(=O)c1cnc(-c2cccc(COC(=O)C3CC3)c2)n1C)c1cccnc1 [Example 45] | 90% | 90% | 1.28 | 1.86 | 
COc1ccccc1-c1ncc(C(=O)N(C)c2cccnc2)n1C [Example 82] | 100% | 100% | 0.65 | 1.45 | 
CN(C(=O)c1cnc(-c2cccc3ccccc23)n1C)c1cccnc1 [Example 27] | 90% | 100% | 1.35 | 1.89 | 
CC(=O)OCc1cc(-c2ncc(C(=O)N(C)c3cccnc3)n2C)ccc1F [Example 44] | 90% | 90% | 1.39 | 1.81 | 
